According to ChEMBL document CHEMBL1146235, “Rationally designed dual inhibitors of HIV reverse transcriptase and integrase” (J Med Chem, 2007):

Tests used:
[1] = Cytotoxicity against human PBMC; format: cell-based; settings: PBMC (peripheral blood mononuclear cells)
[2] = molecular target: Human immunodeficiency virus type 1 integrase (Human immunodeficiency virus 1, UniProt Q7ZJM1); assay: Inhibition of HIV1 integrase expressed in Escherichia coli BL21 (DE3)
[3] = tested on: Human immunodeficiency virus 1; assay: Antiviral activity against HIV1 NL4-3 in human PBMC; format: functional, organism-based; settings: Human immunodeficiency virus 1, NL4.3
[4] = molecular target: Human immunodeficiency virus type 1 reverse transcriptase (Human immunodeficiency virus 1, UniProt Q72547); assay: Inhibition of HIV1 reverse transcriptase
[5] = Theraputc index, ratio of CC50 of PBMC cells to EC50 of HIV1 NL4-3; format: ADME, cell-based; settings: read-out: Ratio CC50/EC50
[6] = Cytotoxicity against CEM-SS cells assessed as cell viability; format: cell-based; settings: human, read-out: Activity
[7] = tested on: Human immunodeficiency virus 1; assay: Antiviral activity against HIV1 3B in CEM-SS cells by cytoprotection assay; format: functional; design: concentration or dose not given beside the values

Sequence of Human immunodeficiency virus type 1 integrase (Q7ZJM1 whole entry): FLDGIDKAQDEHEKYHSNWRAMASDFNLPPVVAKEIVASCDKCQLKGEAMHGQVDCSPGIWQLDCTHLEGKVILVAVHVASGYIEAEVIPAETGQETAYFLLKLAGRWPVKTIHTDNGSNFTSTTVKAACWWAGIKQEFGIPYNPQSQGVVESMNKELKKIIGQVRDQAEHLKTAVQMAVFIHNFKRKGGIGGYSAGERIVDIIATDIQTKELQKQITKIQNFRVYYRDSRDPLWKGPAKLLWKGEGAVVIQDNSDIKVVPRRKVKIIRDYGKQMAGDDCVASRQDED

Row | Compound | CC50 [1] | IC50 [2] | EC50 [3] | IC50 [4] | selectivity ratio [5] | viability [6] | Activity [7]
1 | CC(C)c1c(Cc2ccccc2)n(COCc2ccccc2)c(=O)[nH]c1=O | > 10000 nM | > 100000 nM | 16 nM | 16 nM | > 160 |  | 
2 | O=Cc1ccc(-c2cc(-c3cccc(C=O)c3)c(O)c(O)c(=O)c2O)cc1 | 6000 nM | 1100 nM | 3000 nM | 1200 nM | 2 |  | 
3 | O=C(O)/C(O)=C/C(=O)c1cccc(Cc2ccccc2)c1 | > 10000 nM |  | 160 nM | > 100000 nM |  |  | 
4 | O=[N+]([O-])c1ccc(C2c3c(O)nc(S)nc3Oc3nc(S)nc(O)c32)cc1 | 120000 nM | 300 nM |  | 4800 nM | 14 |  | 
5 | CCc1c(Cc2cc(C)cc(C)c2)n(COCc2ccc(C(=O)/C=C(\O)C(=O)O)cc2)c(=O)[nH]c1=O | > 10000 nM | 4440 nM | 9.7 nM | 24.2 nM | > 1000 | 100% | 100%
6 | Cc1cc(C)cc(Cc2c(C(C)C)c(=O)[nH]c(=O)n2COCc2ccc(C(=O)/C=C(\O)C(=O)O)cc2)c1 | > 10000 nM | 7670 nM | 17 nM | 9.2 nM | > 600 | 100% | 100%
7 | O=C(Nc1ccc2c(O)c(/N=N/c3ccc(C(=O)O)cc3)c(S(=O)(=O)O)cc2c1)Nc1ccc2c(O)c(/N=N/c3ccc(C(=O)O)cc3)c(S(=O)(=O)O)cc2c1 |  | 700 nM |  | 390 nM |  |  | 
8 | CCc1c(Cc2ccccc2)n(COCc2ccc(C(=O)/C=C(\O)C(=O)O)cc2)c(=O)[nH]c1=O | > 10000 nM | 1820 nM | 52 nM | 235 nM | > 190 | 91% | 95.2%
9 | CC(C)c1c(Cc2ccccc2)n(COCc2ccc(C(=O)/C=C(\O)C(=O)O)cc2)c(=O)[nH]c1=O | > 10000 nM | 2410 nM | 33 nM | 57 nM | > 310 | 90% | 100%
